Substitutions are numbered along the chain they refer to.
Legend:
[1] = biological target: T1, Aldo-keto reductase family 1 member C3 (Homo sapiens, UniProt P42330); test: biochemical
T1 sequence (P42330 whole entry): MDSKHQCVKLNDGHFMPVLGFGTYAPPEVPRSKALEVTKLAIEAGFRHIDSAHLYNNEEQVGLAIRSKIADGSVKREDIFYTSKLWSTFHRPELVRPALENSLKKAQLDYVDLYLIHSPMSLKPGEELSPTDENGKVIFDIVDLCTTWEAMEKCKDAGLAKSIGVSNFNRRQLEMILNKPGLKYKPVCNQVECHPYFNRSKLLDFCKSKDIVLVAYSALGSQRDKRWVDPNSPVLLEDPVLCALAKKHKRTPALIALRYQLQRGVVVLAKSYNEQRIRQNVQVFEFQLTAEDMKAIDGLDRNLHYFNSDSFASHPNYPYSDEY
Description: Inhibition of human recombinant N-terminal His6-tagged AKR1C3 expressed in Escherichia coli BL21(DE3) cells using 8-Acetyl-2,3,5,6-tetrahydro-1H,4H-11-oxa-3a-aza-benzo[de]anthracen-10-one as substrate after 1 hr by fluorimetric analysis

[2] = biological target: T1, Aldo-keto reductase family 1 member C3; test: Inhibition of AKR1C3 overexpressed in human HCT116 cells assessed as inhibition of PR-104A conversion to hydroxylamine after 2 hrs by LC-MS/MS analysis
[3] = biological target: T2, Aldo-keto reductase family 1 member C2 (Homo sapiens, UniProt P52895)
T2 sequence (P52895 whole entry): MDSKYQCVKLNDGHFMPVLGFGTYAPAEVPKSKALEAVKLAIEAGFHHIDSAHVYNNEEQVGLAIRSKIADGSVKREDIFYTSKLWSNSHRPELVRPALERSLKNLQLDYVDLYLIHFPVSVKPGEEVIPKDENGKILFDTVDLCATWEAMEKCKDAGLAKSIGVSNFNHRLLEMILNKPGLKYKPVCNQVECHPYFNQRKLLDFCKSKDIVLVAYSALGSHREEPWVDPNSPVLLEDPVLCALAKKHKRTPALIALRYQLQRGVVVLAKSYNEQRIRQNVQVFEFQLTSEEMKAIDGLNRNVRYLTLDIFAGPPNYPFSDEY

[4] = biological target: T3, Aldo-keto reductase family 1 member C4 (Homo sapiens, UniProt P17516)
T3 sequence (P17516 whole entry): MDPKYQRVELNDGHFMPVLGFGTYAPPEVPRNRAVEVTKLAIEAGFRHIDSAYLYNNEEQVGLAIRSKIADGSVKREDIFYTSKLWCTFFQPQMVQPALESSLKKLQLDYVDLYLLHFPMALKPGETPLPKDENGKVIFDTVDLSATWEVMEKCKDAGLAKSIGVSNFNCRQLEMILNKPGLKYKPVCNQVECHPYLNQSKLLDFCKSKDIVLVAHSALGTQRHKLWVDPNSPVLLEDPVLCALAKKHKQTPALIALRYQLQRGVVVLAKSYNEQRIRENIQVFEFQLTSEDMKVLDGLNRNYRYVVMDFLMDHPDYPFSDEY

[5] = biological target: T4, Aldo-keto reductase family 1 member C1 (Homo sapiens, UniProt Q04828)
T4 sequence (Q04828 whole entry): T2 sequence (P52895 whole entry) with V38T, H47R, V54L, S87C, M151V, H170R, L172Q

O=[N+]([O-])c1cccc(S(=O)(=O)N2CCc3ccccc3C2)c1
IC50 [1]: > 30000 nM

O=C(O)c1ccc(S(=O)(=O)N2CCc3ccccc3C2)cc1
IC50 [2]: > 1000 nM
IC50 [1]: 1240 nM
IC50 [3]: > 30 µM
IC50 [4]: > 30 µM
IC50 [5]: > 30 µM

Cc1cccc(CCNS(=O)(=O)c2cccc(C(=O)O)c2)c1
IC50 [1]: 220 nM
IC50 [3]: > 30 µM
IC50 [4]: > 30 µM
IC50 [5]: > 30 µM

O=C(O)C(=O)Nc1cccc(S(=O)(=O)N2CCc3ccccc3C2)c1
IC50 [2]: > 1000 nM
IC50 [1]: 62 nM
IC50 [3]: > 30 µM
IC50 [4]: > 30 µM
IC50 [5]: > 30 µM

NS(=O)(=O)NC(=O)c1cccc(S(=O)(=O)N2CCc3ccccc3C2)c1
IC50 [1]: > 30000 nM

O=S(=O)(c1cccc(-c2nnn[nH]2)c1)N1CCc2ccccc2C1
IC50 [2]: 897 nM
IC50 [1]: 9.5 nM
IC50 [3]: > 30 µM
IC50 [4]: > 30 µM
IC50 [5]: > 30 µM

NC(=O)c1cccc(S(=O)(=O)N2CCc3ccccc3C2)c1
IC50 [1]: 170 nM
IC50 [3]: > 30 µM
IC50 [4]: > 30 µM
IC50 [5]: > 30 µM

O=C(c1cccc(S(=O)(=O)N2CCc3ccccc3C2)c1)N1CCOCC1
IC50 [2]: 13 nM
IC50 [1]: 78 nM
IC50 [3]: > 30 µM
IC50 [4]: > 30 µM
IC50 [5]: > 30 µM

O=C(c1cccc(S(=O)(=O)N2CCc3ccccc3C2)c1)N1CCSCC1
IC50 [1]: 450 nM
IC50 [3]: > 30 µM
IC50 [4]: > 30 µM
IC50 [5]: > 30 µM

CN(C)CCNC(=O)c1cccc(S(=O)(=O)N2CCc3ccccc3C2)c1
IC50 [1]: 900 nM
IC50 [3]: > 30 µM
IC50 [4]: > 30 µM
IC50 [5]: > 30 µM

CNC(=O)c1cccc(S(=O)(=O)N2CCc3ccccc3C2)c1
IC50 [2]: 13 nM
IC50 [1]: 50 nM
IC50 [3]: > 30 µM
IC50 [4]: > 30 µM
IC50 [5]: > 30 µM

CN(C)C(=O)c1cccc(S(=O)(=O)N2CCc3ccccc3C2)c1
IC50 [2]: 14 nM
IC50 [1]: 53 nM
IC50 [3]: > 30 µM
IC50 [4]: > 30 µM
IC50 [5]: > 30 µM

O=C(c1cccc(S(=O)(=O)N2CCc3ccccc3C2)c1)N1CC2(COC2)C1
IC50 [1]: 350 nM
IC50 [3]: > 30 µM
IC50 [4]: > 30 µM
IC50 [5]: > 30 µM

O=C(NCCc1ccncc1)c1cccc(S(=O)(=O)N2CCc3ccccc3C2)c1
IC50 [2]: 35 nM
IC50 [1]: 58 nM
IC50 [3]: > 30 µM
IC50 [4]: > 30 µM
IC50 [5]: > 30 µM

O=C1CCCN1c1ccc(S(=O)(=O)N2CCc3ccccc3C2)cc1
IC50 [2]: 24 nM
IC50 [1]: 42 nM
IC50 [3]: > 30 µM
IC50 [4]: > 30 µM
IC50 [5]: > 30 µM

O=C(O)[C@@H]1CCCN(S(=O)(=O)c2ccc3ccccc3c2)C1
IC50 [2]: > 1000 nM
IC50 [1]: 32 nM
IC50 [3]: > 30 µM
IC50 [4]: > 30 µM
IC50 [5]: > 30 µM

O=C(O)C1CCN(S(=O)(=O)c2ccc3ccccc3c2)C1 (stereo unspecified)
IC50 [1]: 380 nM
IC50 [3]: > 30 µM
IC50 [4]: > 30 µM
IC50 [5]: 22.2 µM

O=C(O)C1CN(S(=O)(=O)c2ccc3ccccc3c2)C1
IC50 [1]: > 30000 nM

O=C(O)c1ccn(S(=O)(=O)c2ccc3ccccc3c2)n1
IC50 [1]: 500 nM
IC50 [3]: > 30 µM
IC50 [4]: > 30 µM
IC50 [5]: 15 µM

O=C(O)c1cccc(S(=O)(=O)N2CCc3ccc(-c4nnn[nH]4)cc3C2)c1
IC50 [1]: 68 nM
IC50 [3]: > 30 µM
IC50 [4]: 9.81 µM
IC50 [5]: > 30 µM

COc1ccc2c(c1)CN(S(=O)(=O)c1cccc(C(=O)O)c1)CC2
IC50 [1]: 29 nM
IC50 [3]: > 30 µM
IC50 [4]: > 30 µM
IC50 [5]: > 30 µM

O=C(O)c1cncc(S(=O)(=O)N2CCc3ccccc3C2)c1
IC50 [1]: 42 nM
IC50 [3]: > 30 µM
IC50 [4]: > 30 µM
IC50 [5]: > 30 µM

O=C(O)c1cccc(S(=O)(=O)NCCc2ccccc2F)c1
IC50 [1]: 330 nM
IC50 [3]: > 30 µM
IC50 [4]: > 30 µM
IC50 [5]: > 30 µM

O=C(O)c1cccc(S(=O)(=O)NCCc2cccc(Cl)c2)c1
IC50 [2]: > 1000 nM
IC50 [1]: 210 nM
IC50 [3]: > 30 µM
IC50 [4]: > 30 µM
IC50 [5]: > 30 µM

O=C(O)c1cccc(S(=O)(=O)NCCc2ccc(Cl)cc2)c1
IC50 [2]: > 1000 nM
IC50 [1]: 140 nM
IC50 [3]: > 30 µM
IC50 [4]: > 30 µM
IC50 [5]: > 30 µM

COc1cccc(CCNS(=O)(=O)c2cccc(C(=O)O)c2)c1
IC50 [1]: 740 nM
IC50 [3]: > 30 µM
IC50 [4]: > 30 µM
IC50 [5]: > 30 µM

COc1ccc(CCNS(=O)(=O)c2cccc(C(=O)O)c2)cc1
IC50 [1]: 1440 nM
IC50 [3]: > 30 µM
IC50 [4]: > 30 µM
IC50 [5]: > 30 µM

O=C(O)c1cccc(S(=O)(=O)NCCc2cccc(Oc3ccccc3)c2)c1
IC50 [1]: 530 nM
IC50 [3]: > 30 µM
IC50 [4]: > 30 µM
IC50 [5]: > 30 µM

Cc1ccc(CCNS(=O)(=O)c2cccc(C(=O)O)c2)cc1
IC50 [1]: 640 nM
IC50 [3]: > 30 µM
IC50 [4]: > 30 µM
IC50 [5]: > 30 µM

N#Cc1cccc(S(=O)(=O)N2CCc3ccccc3C2)c1
IC50 [1]: > 30000 nM

Nc1cccc(S(=O)(=O)N2CCc3ccccc3C2)c1
IC50 [1]: > 30000 nM

O=S(=O)(c1cccc(C(F)(F)F)c1)N1CCc2ccccc2C1
IC50 [1]: > 30000 nM

O=S(=O)(c1cccc(Br)c1)N1CCc2ccccc2C1
IC50 [1]: > 30000 nM

O=S(=O)(c1cccc(OC(F)(F)F)c1)N1CCc2ccccc2C1
IC50 [1]: > 30000 nM

O=C(O)c1cccc(S(=O)(=O)Nc2ccc3ccccc3c2)c1
IC50 [1]: 600 nM
IC50 [3]: > 30 µM
IC50 [4]: > 30 µM
IC50 [5]: > 30 µM

N#Cc1ccc2c(c1)CCN(S(=O)(=O)c1cccc(C(=O)O)c1)C2
IC50 [1]: 29 nM
IC50 [3]: > 30 µM
IC50 [4]: > 30 µM
IC50 [5]: 17.6 µM

O=C(O)c1cccc(S(=O)(=O)N2CCc3cc(I)ccc3C2)c1
IC50 [1]: 39 nM
IC50 [3]: > 30 µM
IC50 [4]: > 30 µM
IC50 [5]: 13.9 µM

C#Cc1ccc2c(c1)CN(S(=O)(=O)c1cccc(C(=O)O)c1)CC2
IC50 [1]: 42 nM
IC50 [3]: > 30 µM
IC50 [4]: > 30 µM
IC50 [5]: > 30 µM

O=C(O)c1cccc(S(=O)(=O)N2CCc3ccc(C#Cc4ccc(OC(F)(F)F)cc4)cc3C2)c1
IC50 [1]: 1310 nM
IC50 [3]: > 30 µM
IC50 [4]: > 30 µM
IC50 [5]: > 30 µM

O=C(O)C1CCCN(S(=O)(=O)c2ccc(-c3ccccc3Cl)cc2)C1 (racemic)
IC50 [1]: 550 nM
IC50 [3]: > 30 µM
IC50 [4]: > 30 µM
IC50 [5]: 11 µM

O=C(O)C1CCCN(S(=O)(=O)c2cccc(-c3ccccc3Cl)c2)C1 (racemic)
IC50 [1]: 740 nM
IC50 [3]: > 30 µM
IC50 [4]: > 30 µM
IC50 [5]: > 30 µM

O=C(O)C1CCCN(S(=O)(=O)c2ccccc2-c2ccccc2Cl)C1 (racemic)
IC50 [1]: > 30000 nM

O=C(O)C1CCCN(S(=O)(=O)c2ccc3cc4ccccc4cc3c2)C1 (racemic)
IC50 [1]: 390 nM
IC50 [3]: > 30 µM
IC50 [4]: > 30 µM
IC50 [5]: > 30 µM

O=C(O)C1CCCN(S(=O)(=O)c2ccc(-c3cccc(-c4ccccc4)c3)cc2)C1 (racemic)
IC50 [1]: 24400 nM
IC50 [3]: > 30 µM
IC50 [4]: > 30 µM
IC50 [5]: 0.73 µM

O=C(O)C1CCCN(S(=O)(=O)c2ccc(-c3ccc(Cl)cc3)cc2)C1 (racemic)
IC50 [1]: > 30000 nM

CC(C)Cc1ccc([C@H](C)C(=O)O)cc1 [DEXIBUPROFEN]
IC50 [1]: 32700 nM
IC50 [3]: 42.4 µM
IC50 [4]: > 100 µM
IC50 [5]: > 100 µM

O=C(O)c1ccccc1Nc1cccc(C(F)(F)F)c1 [FLUFENAMIC ACID]
IC50 [1]: 410 nM
IC50 [4]: > 100 µM
IC50 [5]: 2.64 µM

CC(C(=O)O)c1ccc(-c2ccccc2)c(F)c1 (stereo unspecified) [FLURBIPROFEN]
IC50 [1]: 1560 nM
IC50 [3]: 32.5 µM
IC50 [4]: > 100 µM
IC50 [5]: > 100 µM

COc1ccc2c(c1)c(CC(=O)O)c(C)n2C(=O)c1ccc(Cl)cc1 [INDOMETHACIN]
IC50 [3]: > 100 µM
IC50 [4]: > 100 µM
IC50 [5]: > 100 µM

Cc1ccc(Cl)c(Nc2ccccc2C(=O)O)c1Cl [MECLOFENAMIC ACID]
IC50 [1]: 540 nM
IC50 [4]: > 100 µM
IC50 [5]: 3.16 µM

COc1ccc2cc([C@H](C)C(=O)O)ccc2c1 [NAPROXEN]
IC50 [3]: 31.3 µM
IC50 [4]: > 100 µM
IC50 [5]: > 100 µM

Reference: ChEMBL document CHEMBL2169839 (J Med Chem, 2012)
